≈ marks a conversion by molar mass, not a printed value. Where two headings read alike, the source gives them in different places.
Legend:
[1] = tested on: T. brucei brucei GUTat 3.1; experiment: In vitro anti-trypanosomal activity (Alamar Blue); assay type: cell-based, Trypanosoma brucei brucei; settings: for Selectivity Index (SI): (IC50 for MRC-5)/(IC50 for T. brucei brucei); for IC50: Trypanosoma brucei, read-out: IC50 anti-trypanosomal activity; for IC50 / IC50 anti-trypanosomal activity: 72 h
Description: With collections of the natural-product-inspired molecules in hand, in vitro anti-trypanosomal activities were evaluated by employing a GUTat 3.1 strain of T. brucei brucei (Table 1) according to the previously reported protocols (Supporting Information File 1). […] Thus, this preliminary assessment supports the idea that the collections of natural-product-inspired scaffolds could have high hit rates against biological screenings, even without having structural information about the biological targets and small-molecule modulators related to the targeted cellular functions. Further screening investigations of the synthetic collections prepared in the four-step process are currently underway in our laboratories.
Assay for in vitro anti-trypanosomal activity against T. brucei species According to a procedure previously used in [Toriizuka et al. Bioorg. Med. Chem. 2008, 16, 10182–10189.], Trypanosoma brucei brucei strain GUTat 3.1 (Glasgow University, Trypanozoon antigenic type 3.1) was generously donated from Dr. Y. Yabu (Nagoya City University). T. brucei brucei GUTat 3.1 strain was cultured in IMDM with 3.024 g/L NaHCO3, 100 μM hypoxanthine, 30 μM thymidine, 40 μM adenosine, 1.0 mM sodium pyruvate, 50 μM L-glutamine, 100 μM 2-mercaptoethanol, 50 U/mL of penicillin, and 50 μg/mL of streptomycin containing 10% heat-inactivated FBS at 37 °C, under 5.0% CO2–95% air, according to the protocol of [Yabu et al.
Southeast Asian J. Trop. Med. Public Health 1998, 29, 591]. In vitro antitrypanosomal activity of the test compounds was evaluated from a dose–response curve utilizing the fluorescent dye, Alamar Blue, according to the method of [Räz et al. Acta Trop. 1997, 68, 139 and Tasdemir et al.
Antimicrob. Agents Chemother. 2006, 50, 1352] with some modifications. Ninety-five microliters of trypanosome suspension ([…] trypanosomes/mL for GUTat 3.1 strain) of bloodstream forms was seeded into a 96-well microplate and 5.0 μL of test compound solution (dissolved in 5.0% dimethylsulfoxide: DMSO) was added. After incubating for 72 h at 37 °C under 5.0% CO2–95% air, 10 μL of Alamar Blue was added to each well. After further incubation for 3–6 h at 37 °C under 5.0% CO2–95% air, the microplate was measured at 528/20 nm excitation wavelength and 590/35 nm emission wavelength with an FLx800 fluorescent plate reader (Bio-Tek Instrument, Inc.Vermont, USA). Data were transferred into a graphic program (Excel) and the 50% inhibitory concentration (IC50) values were determined with fluorescent plate reader software (KC-4, […]
(§1) Cytotoxicity tests on MRC-5 cells
(§2) The human diploid embryonic cell line, MRC-5, was a generous gift from Dr. L. Maes (Tibotec NV, Mechelen, Belgium). Cytotoxicity of the test compound was measured by the colorimetric MTT assay [Mossman, T. J. Immunol. Methods 1983, 65, 55 and Otoguro, K. et al. ATLA:Alternatives to Laboratory Animals 1991, 19, 352] in 96-well microplates. In brief, 100 μL of MRC-5 cell suspension was added to 96-well microplates at 1 × 10^3 cells/well and the cells were cultured for 24 h. Then, 90 μL of standard culture medium (MEM + 10% FCS) with or without 10 μL of test compound solution that was dissolved in 25% ethanol or 5% DMSO was added to each well.
(§3) Further incubation was conducted at 37 °C under 5% CO2–95% air for 7 days and then 20 μL of MTT–PBS solution (5 mg/mL) was added to each well. The microplate was incubated at 37 °C for 4 h under 5% CO2–95% air. Then, the incubation medium was aspirated and 100 μL of DMSO was added to solubilize the MTT formazan product. After mixing, absorbance at 540 nm was measured with iEMS microplate reader MF. The IC50 value was estimated from the dose–response curve.

[2] = Cytotoxicity on MRC-5 cells (MTT assay); assay type: cell-based; settings: human, MRC-5 cells (human diploid embryonic cell line)
Description: as §1, §2, §3

[3] = T. brucei brucei GUTat 3.1 strain, 2.0–2.5 × 10^4 trypanosomes/mL
[4] = T. brucei brucei GUTat 3.1 strain

IC50 [1, 3] [µg/mL]	IC50 anti-trypanosomal activity [1, 3] [µg/mL]	SMILES	Selectivity Index (SI) [1]	IC50 at 7 days [2] [µg/mL]	antitrypanosomal activity (in words) [1, 4]	IC50 [1] [µg/mL]
5.9 (≈ 7.64 µM)		COc1ccc(CN2C(=O)[C@@]3(C)CCCN4C(=O)[C@]5(C(C)=O)O[C@@]43[C@@]3(c4ccccc4N(S(=O)(=O)c4ccccc4[N+](=O)[O-])[C@H]53)[C@@H]2C(=O)NC(C)(C)C)cc1 (racemic) [25a]	4.1	24.5 (≈ 31.7 µM)		
> 12.5		COc1ccc(CN2C(=O)[C@@]3(C)CCCN4C(=O)[C@]5(C(C)=O)O[C@@]43[C@@]3(c4ccccc4N(S(=O)(=O)c4ccccc4[N+](=O)[O-])[C@H]53)[C@H]2C(=O)NC(C)(C)C)cc1 (racemic) [25b]			negligible	
		CC(=O)[C@@]12O[C@@]34N(CCC[C@]3(C)N([C@@H](CC(C)C)C(=O)NC(C)(C)C)C(=O)[C@]43c4ccccc4N(S(=O)(=O)c4ccccc4[N+](=O)[O-])[C@H]13)C2=O [63a]			insignificant activities	
0.00158 (≈ 0.00464 µM)		N=C(N)c1ccc(OCCCCCOc2ccc(C(=N)N)cc2)cc1 [pentamidine, reference compound]	3600	5.71 (≈ 16.8 µM)		
		CC(=O)C12OC34N(CCCC3(C)N(C(CC(C)C)C(=O)NC(C)(C)C)C(=O)C43c4ccccc4N(S(=O)(=O)c4ccccc4[N+](=O)[O-])C13)C2=O (stereo not shown) [63b]			insignificant activities	
5.89 (≈ 8.18 µM)		CC(=O)[C@]12O[C@]34[C@@H](CN([C@H](C(=O)NC(C)(C)C)c5cn(S(=O)(=O)c6ccccc6[N+](=O)[O-])c6ccccc56)C(=O)[C@@]3(C)CCCN4C1=O)C2(C)C [41b]	5.9	34.6 (≈ 48.1 µM)		
	0.46 (≈ 0.665 µM)	CC(=O)C12CC3CN(C(C(=O)NC(C)(C)C)c4cn(S(=O)(=O)c5ccccc5[N+](=O)[O-])c5ccccc45)C(=O)C4(C)CCCN(C1=O)C34O2 (stereo not shown) [39b]	8.7	4.02 (≈ 5.81 µM)		
		CC(=O)[C@@]12O[C@@]34N(CCC[C@]3(C)C(=O)N([C@H](C(=O)NC(C)(C)C)c3cn(S(=O)(=O)c5ccccc5[N+](=O)[O-])c5ccccc35)C[C@]43c4ccccc4N(S(=O)(=O)c4ccccc4[N+](=O)[O-])[C@H]13)C2=O [30b]			negligible	> 12.5
2.27 (≈ 12.5 µM)		NCCCC(N)(C(=O)O)C(F)F (stereo not shown) [eflornithine, reference compound]	>44	> 100		
		Cc1ccc(C(=O)Nc2ccc(S(=O)(=O)O)c3cc(S(=O)(=O)O)cc(S(=O)(=O)O)c23)cc1NC(=O)c1cccc(NC(=O)Nc2cccc(C(=O)Nc3cc(C(=O)Nc4ccc(S(=O)(=O)O)c5cc(S(=O)(=O)O)cc(S(=O)(=O)O)c45)ccc3C)c2)c1 [suramin, reference compound]	>63	> 100		1.58 (≈ 1.22 µM)
	>12.5	CC(=O)C12CC3CN(C(C(=O)NC(C)(C)C)c4cn(S(=O)(=O)c5ccccc5[N+](=O)[O-])c5ccccc45)C(=O)C4(C)CCCN(C1=O)C34O2 (stereo not shown) [39a]			negligible activities	
> 12.5		CC(=O)[C@@]12C[C@@H]3CN([C@H](C(=O)NC(C)(C)C)c4c[nH]c5ccccc45)C(=O)[C@@]4(C)CCCN(C1=O)[C@@]34O2 [39c]			substantial loss of the activities	

Reference: article PMC3388883, “Parallel and four-step synthesis of natural-product-inspired scaffolds through modular assembly and divergent cyclization” (Beilstein Journal of Organic Chemistry, 2012)
